{
  "source": "patent US6977296B2",
  "about": "“HUMAN CERVICAL CANCER SUPPRESSOR PROTEIN, POLYNUCLEOTIDE ENCODING THE PROTEIN, CELL TRANSFORMED WITH THE POLYNUCLEOTIDE AND METHOD FOR SUPPRESSING PROLIFERATION OF CANCER CELL USING THE EXPRESSION VECTOR” (priority 2000, dated 2005)",
  "test_system": "HeLa cervical cancer cells",
  "assay": "Adriamycin or UVC-triggered apoptosis: cell cycle kinetic analysis (PI, FACS)",
  "type": "cell-based, human",
  "description": "To examine whether a drug or UV light triggers apoptosis of the cells transfected with HCCS-1 gene, the cell cycle kinetic analysis was conducted as described by Hedley, D. W.(in Flow Cytometry, DNA Analysis from Paraffin-embedded Blocks (eds Darzynkiewicz, Z. & Crissman, H. A.) 139 (Academic Press, San Diego, 1990)).\nHeLa cells transfected with HCCS-1 gene obtained in Step 2 of Example 4 and parental wild-type cells were cultured until mid-log phase and incubated in Waymouth MB 752/1 medium containing 0.5% bovine calf serum for 36 hours to arrest the cell growth at G0/G1 phase. The cells were treated with adriamycin (0.1 and 2 μg/ml, respectively) or UVC (50 J/m^2) and then the cells were cultured in Waymouth MB 752/1 medium containing 0.5% bovine calf to resume the cell growth. After 24 hours, HeLa cells were harvested, treated with trypsin, and fixed in 70% ethanol.\n50 μg/ml of PI staining solution (Sigma) and 100 units/ml of RNase A (Boerhinger Mannheim) were added to 2×10^6 of the fixed cells. After incubation for 1 hour, the cellular DNA content was determined by fluorescence analysis at 488 nm using a FACS Caliber (Becton Dickinson). A minimum of 1×10^4 cells per sample was analyzed with Modfit 5.2 software.",
  "data": [
    {"smiles": "COc1cccc2c1C(=O)c1c(O)c3c(c(O)c1C2=O)C[C@@](O)(C(=O)CO)C[C@@H]3O[C@H]1C[C@H](N)[C@H](O)[C@H](C)O1", "note": "[adriamycin]", "values": [
      {"measurement": "differences in cell populations with respect to cell cycle progression between wild-type and HCCS-1-transfected HeLa cells", "setting": "adriamycin 0.1 and 2 μg/ml, 24 hours", "result": "no significant differences"},
      {"measurement": "cells in apoptotic sub G0/G1-phase", "setting": "wild-type HeLa cells, 24 hours after adriamycin 0.1 and 2 μg/ml", "result": "few cells remained in apoptotic sub G0/G1-phase"}
    ]}
  ]
}
